The target of one test is T1, Progesterone receptor (Homo sapiens, UniProt P06401).
T1 sequence (P06401 whole entry): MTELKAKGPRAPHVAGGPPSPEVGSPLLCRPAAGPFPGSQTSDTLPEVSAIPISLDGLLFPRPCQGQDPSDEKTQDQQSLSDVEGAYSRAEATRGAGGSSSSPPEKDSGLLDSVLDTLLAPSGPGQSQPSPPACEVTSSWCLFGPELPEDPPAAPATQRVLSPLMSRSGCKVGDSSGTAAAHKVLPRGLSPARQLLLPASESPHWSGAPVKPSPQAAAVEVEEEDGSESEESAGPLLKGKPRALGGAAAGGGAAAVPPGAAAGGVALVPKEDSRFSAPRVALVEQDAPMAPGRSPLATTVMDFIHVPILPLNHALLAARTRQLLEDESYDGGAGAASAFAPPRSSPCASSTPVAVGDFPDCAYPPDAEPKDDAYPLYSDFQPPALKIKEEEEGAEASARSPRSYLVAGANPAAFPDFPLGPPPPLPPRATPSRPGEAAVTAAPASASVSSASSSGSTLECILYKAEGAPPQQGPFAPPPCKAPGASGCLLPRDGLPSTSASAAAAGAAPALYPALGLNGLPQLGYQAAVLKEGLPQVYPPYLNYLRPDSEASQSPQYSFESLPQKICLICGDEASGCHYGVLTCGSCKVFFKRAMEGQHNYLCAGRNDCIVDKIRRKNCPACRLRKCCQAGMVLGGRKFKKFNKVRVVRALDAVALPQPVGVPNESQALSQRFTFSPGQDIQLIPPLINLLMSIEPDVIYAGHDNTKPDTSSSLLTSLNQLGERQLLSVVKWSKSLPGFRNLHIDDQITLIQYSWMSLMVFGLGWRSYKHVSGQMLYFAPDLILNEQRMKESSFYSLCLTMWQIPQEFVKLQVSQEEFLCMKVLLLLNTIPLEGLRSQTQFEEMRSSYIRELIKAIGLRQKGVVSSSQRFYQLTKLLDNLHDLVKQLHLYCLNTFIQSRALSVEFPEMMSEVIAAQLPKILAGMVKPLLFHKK
It is filed as functional.

In another test the target is Vasopressin V1a receptor (Homo sapiens, UniProt P37288).
Chain of Vasopressin V1a receptor (P37288 whole entry): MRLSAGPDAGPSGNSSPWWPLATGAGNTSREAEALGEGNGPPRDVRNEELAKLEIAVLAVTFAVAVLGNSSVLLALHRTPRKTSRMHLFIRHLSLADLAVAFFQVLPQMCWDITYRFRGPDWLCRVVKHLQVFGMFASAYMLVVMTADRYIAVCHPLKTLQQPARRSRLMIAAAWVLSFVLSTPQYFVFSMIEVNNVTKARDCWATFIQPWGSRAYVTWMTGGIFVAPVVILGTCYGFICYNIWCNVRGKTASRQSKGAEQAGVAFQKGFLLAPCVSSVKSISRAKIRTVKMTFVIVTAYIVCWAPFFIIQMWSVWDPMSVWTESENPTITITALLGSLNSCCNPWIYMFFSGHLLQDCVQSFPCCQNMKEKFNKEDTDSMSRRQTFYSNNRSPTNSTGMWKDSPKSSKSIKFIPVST
Test [1] addresses T2, Alpha-2B adrenergic receptor (Homo sapiens, UniProt P18089).
T2 sequence (P18089 whole entry): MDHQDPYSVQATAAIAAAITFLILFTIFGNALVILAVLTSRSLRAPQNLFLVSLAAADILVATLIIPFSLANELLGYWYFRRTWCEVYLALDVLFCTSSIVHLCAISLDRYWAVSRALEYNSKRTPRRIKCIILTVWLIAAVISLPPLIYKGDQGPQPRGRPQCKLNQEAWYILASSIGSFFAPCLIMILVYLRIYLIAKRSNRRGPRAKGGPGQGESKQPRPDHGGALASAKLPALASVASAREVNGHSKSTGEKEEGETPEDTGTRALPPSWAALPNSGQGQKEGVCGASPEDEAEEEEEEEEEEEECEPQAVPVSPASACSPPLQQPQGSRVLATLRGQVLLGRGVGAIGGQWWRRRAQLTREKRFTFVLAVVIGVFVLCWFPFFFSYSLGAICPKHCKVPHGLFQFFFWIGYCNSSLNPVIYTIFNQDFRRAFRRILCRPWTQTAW

The target in test [2] is T3, Alpha-1A adrenergic receptor (Homo sapiens, UniProt P35348).
T3 sequence (P35348 whole entry): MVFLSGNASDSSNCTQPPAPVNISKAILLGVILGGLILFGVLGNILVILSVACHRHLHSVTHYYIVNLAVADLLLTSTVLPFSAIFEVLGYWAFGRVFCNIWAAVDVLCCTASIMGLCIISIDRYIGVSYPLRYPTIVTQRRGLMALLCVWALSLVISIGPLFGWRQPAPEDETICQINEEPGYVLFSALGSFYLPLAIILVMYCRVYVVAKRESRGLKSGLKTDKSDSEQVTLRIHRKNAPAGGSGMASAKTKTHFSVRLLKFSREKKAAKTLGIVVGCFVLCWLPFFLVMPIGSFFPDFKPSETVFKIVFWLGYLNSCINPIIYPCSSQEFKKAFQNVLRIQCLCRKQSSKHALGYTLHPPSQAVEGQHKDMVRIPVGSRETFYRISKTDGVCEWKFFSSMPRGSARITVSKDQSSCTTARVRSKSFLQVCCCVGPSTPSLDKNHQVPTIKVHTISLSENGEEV
It is filed as functional, cell-based.

For the next test, the target named is Cannabinoid receptor 1 (Homo sapiens, UniProt P21554). Type of test: functional, cell-based.
Chain of Cannabinoid receptor 1 (P21554 whole entry): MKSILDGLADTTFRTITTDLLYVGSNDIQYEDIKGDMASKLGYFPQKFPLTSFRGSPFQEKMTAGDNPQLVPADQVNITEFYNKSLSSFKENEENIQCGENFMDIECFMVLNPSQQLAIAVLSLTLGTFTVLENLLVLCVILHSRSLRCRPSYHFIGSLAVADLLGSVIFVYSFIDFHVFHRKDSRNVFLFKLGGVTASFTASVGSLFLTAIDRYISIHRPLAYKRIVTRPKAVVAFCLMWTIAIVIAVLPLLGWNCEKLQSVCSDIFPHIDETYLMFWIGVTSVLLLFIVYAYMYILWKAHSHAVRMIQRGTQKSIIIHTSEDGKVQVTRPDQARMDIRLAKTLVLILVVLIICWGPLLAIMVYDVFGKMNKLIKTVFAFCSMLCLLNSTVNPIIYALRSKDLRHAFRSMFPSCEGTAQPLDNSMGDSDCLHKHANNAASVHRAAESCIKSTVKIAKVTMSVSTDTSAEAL
For another test, the target named is Histamine H2 receptor (Homo sapiens, UniProt P25021). It is filed as functional, cell-based.
Chain of Histamine H2 receptor (P25021 whole entry): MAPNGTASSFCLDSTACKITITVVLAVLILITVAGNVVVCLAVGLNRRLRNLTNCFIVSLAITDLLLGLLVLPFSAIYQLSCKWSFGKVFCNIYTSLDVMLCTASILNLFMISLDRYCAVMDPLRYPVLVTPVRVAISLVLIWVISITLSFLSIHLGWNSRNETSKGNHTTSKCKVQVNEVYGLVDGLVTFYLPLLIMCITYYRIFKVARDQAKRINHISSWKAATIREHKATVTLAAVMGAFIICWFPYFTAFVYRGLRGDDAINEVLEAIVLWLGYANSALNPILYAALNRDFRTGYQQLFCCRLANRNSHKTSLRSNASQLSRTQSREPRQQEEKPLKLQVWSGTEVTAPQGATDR
Another test concerns the target T4, Thromboxane A2 receptor (Homo sapiens, UniProt P21731).
T4 sequence (P21731 whole entry): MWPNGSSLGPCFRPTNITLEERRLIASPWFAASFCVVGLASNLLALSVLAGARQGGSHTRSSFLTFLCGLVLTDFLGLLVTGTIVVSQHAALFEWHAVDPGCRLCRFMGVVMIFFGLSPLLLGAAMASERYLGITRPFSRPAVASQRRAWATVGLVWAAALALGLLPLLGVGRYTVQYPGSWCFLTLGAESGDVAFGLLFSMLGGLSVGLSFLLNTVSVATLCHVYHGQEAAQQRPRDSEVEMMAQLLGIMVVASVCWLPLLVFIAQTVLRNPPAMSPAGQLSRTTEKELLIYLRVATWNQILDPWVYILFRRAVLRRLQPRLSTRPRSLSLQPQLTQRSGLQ

Bounds are passed on as bounds.
Also: assay procedure not described here.

With `CCOCC(O)COc1ccc(NC(=O)CC[S+](C)C)cc1` (stereo unspecified), the AC50 (on Progesterone receptor; at Vasopressin V1a receptor; in test [1]; in test [2]; at Cannabinoid receptor 1) was > 30 µM throughout.
For `CCC[C@@]1(CCc2ccccc2)CC(O)=C([C@H](CC)c2cccc(NS(=O)(=O)c3ccc(C(F)(F)F)cn3)c2)C(=O)O1`, the AC50 on Progesterone receptor was > 30 µM; on Vasopressin V1a receptor, > 30 µM; in test [1], > 30 µM; in test [2], 4.7 µM; on Cannabinoid receptor 1 it was > 30 µM.
For the compound `CN(C)CCc1c[nH]c2ccc(CS(=O)(=O)N3CCCC3)cc12` [ALMOTRIPTAN], the AC50 was > 30 µM on Progesterone receptor; > 30 µM at Vasopressin V1a receptor; 30 µM in test [1]; > 30 µM at Histamine H2 receptor; > 30 µM at Cannabinoid receptor 1.
Take `CC[N+](CC)(CCNC(=O)C(=O)NCC[N+](CC)(CC)Cc1ccccc1Cl)Cc1ccccc1Cl` [AMBENONIUM]: the AC50 (at Progesterone receptor; at Vasopressin V1a receptor; on Thromboxane A2 receptor; in test [1]; at Histamine H2 receptor; at Cannabinoid receptor 1) was > 30 µM each time.
On to `Cn1cnc2c(F)c(Nc3ccc(Br)cc3F)c(C(=O)NOCCO)cc21` [BINIMETINIB], for which the AC50 (on Progesterone receptor; on Vasopressin V1a receptor; in test [1]; in test [2]; on Cannabinoid receptor 1) was > 30 µM throughout.
Take `CN(C)CCOC(c1ccc(Cl)cc1)c1ccccn1` (stereo unspecified) [CARBINOXAMINE]: the AC50 is > 30 µM at Progesterone receptor; > 30 µM on Vasopressin V1a receptor; 19 µM in test [1]; > 30 µM in test [2]; > 30 µM on Histamine H2 receptor; > 30 µM on Cannabinoid receptor 1.
In the case of `CCN(CC)CCn1c(=O)c(Cc2ccc(OC)cc2)nc2ccccc21` [CAROVERINE], the AC50 at Progesterone receptor is > 30 µM; on Vasopressin V1a receptor, > 30 µM; on Thromboxane A2 receptor, > 30 µM; in test [1], 21 µM; in test [2], > 30 µM; at Histamine H2 receptor it was > 30 µM. In addition, the AC50 on Cannabinoid receptor 1 was > 30 µM.
As to `O=C(O)[C@H]1/C(=C/CO)O[C@@H]2CC(=O)N21` [CLAVULANIC ACID], the AC50 (on Progesterone receptor; at Vasopressin V1a receptor; in test [1]; in test [2]; at Cannabinoid receptor 1) was > 30 µM each time.
For `CC(C)/N=c1\cc2n(-c3ccc(Cl)cc3)c3ccccc3nc-2cc1Nc1ccc(Cl)cc1` [CLOFAZIMINE], the AC50 (on Progesterone receptor; at Vasopressin V1a receptor; at Thromboxane A2 receptor; in test [1]; in test [2]; on Histamine H2 receptor) was > 30 µM each time. Moreover, on Cannabinoid receptor 1, the AC50 is > 30 µM.
For `CCOC(=O)Nc1ccc(NCc2ccc(F)cc2)nc1N` [FLUPIRTINE], the AC50 at Progesterone receptor is > 30 µM; at Vasopressin V1a receptor, > 30 µM; at Thromboxane A2 receptor, 29 µM; in test [1], > 30 µM; on Histamine H2 receptor, > 30 µM; at Cannabinoid receptor 1, > 30 µM.
Regarding `C[C@@H](O)[C@H]1C(=O)N2C(C(=O)O)=C(SCCN=CN)C[C@H]12` [IMIPENEM ANHYDROUS], the concentration at half-maximal activity (AC50) (on Progesterone receptor; on Vasopressin V1a receptor; in test [1]; in test [2]; at Cannabinoid receptor 1) was > 300 µM throughout.
Regarding `N[C@@H](Cc1cc(I)c(Oc2cc(I)c(O)c(I)c2)c(I)c1)C(=O)O` [LEVOTHYROXINE], the AC50 (on Progesterone receptor; on Vasopressin V1a receptor; in test [1]; in test [2]; at Histamine H2 receptor; on Cannabinoid receptor 1) was > 30 µM each time.
Turning to `CC(=O)NC[C@H]1CN(c2ccc(N3CCOCC3)c(F)c2)C(=O)O1` [LINEZOLID], the AC50 (at Progesterone receptor; on Thromboxane A2 receptor; in test [1]; in test [2]; on Histamine H2 receptor; on Cannabinoid receptor 1) was > 30 µM throughout.
`CO[C@@H]1[C@@H](OC(N)=O)[C@@H](O)[C@H](Oc2ccc3c(O)c(NC(=O)c4ccc(O)c(CC=C(C)C)c4)c(=O)oc3c2C)OC1(C)C` [NOVOBIOCIN]: the AC50 (on Progesterone receptor; at Vasopressin V1a receptor; in test [1]; in test [2]; at Cannabinoid receptor 1) was > 30 µM in each case.
Turning to `CC(=O)SCC(Cc1ccccc1)C(=O)NCC(=O)OCc1ccccc1` (stereo unspecified) [RACECADOTRIL], the AC50 on Progesterone receptor was > 30 µM; on Vasopressin V1a receptor, > 30 µM; at Thromboxane A2 receptor it was > 30 µM; in test [1] it was > 30 µM; at Histamine H2 receptor it was > 30 µM; at Cannabinoid receptor 1 it was 17 µM.
`C[C@H](Cn1cnc2c(N)ncnc21)OCP(=O)(O)O` [TENOFOVIR ANHYDROUS]: the AC50 (at Progesterone receptor; at Vasopressin V1a receptor; on Thromboxane A2 receptor; in test [1]; in test [2]; on Histamine H2 receptor) was > 30 µM in each case.
As for `COc1cc2c(cc1OC)C1CC(=O)C(CC(C)C)CN1CC2` (stereo unspecified) [TETRABENAZINE], the AC50 (at Progesterone receptor; at Vasopressin V1a receptor; in test [1]; in test [2]; at Cannabinoid receptor 1) was > 30 µM in each case.
Take `CC(C)(CO)c1cc2cc(NC(=O)C3(c4ccc5c(c4)OC(F)(F)O5)CC3)c(F)cc2n1C[C@@H](O)CO` [TEZACAFTOR]: the AC50 was > 30 µM on Progesterone receptor; > 30 µM on Vasopressin V1a receptor; > 30 µM in test [1]; > 10 µM in test [2]; > 30 µM at Cannabinoid receptor 1.
As to `c1cnc2cc3c(cc2n1)[C@@H]1CNC[C@H]3C1` [VARENICLINE], the AC50 (on Progesterone receptor; at Vasopressin V1a receptor; in test [1]; in test [2]; on Cannabinoid receptor 1) was > 30 µM throughout.
Turning to `Nc1c2c(nc3ccccc13)CCCC2O` (stereo unspecified) [VELNACRINE], the AC50 (at Progesterone receptor; on Vasopressin V1a receptor; in test [1]; in test [2]; on Cannabinoid receptor 1) was > 30 µM in each case.

By AC50 is commonly meant the concentration at which the activity in the assay is half-maximal. Read a high AC50 as activity only at high concentration.

These data come from ChEMBL document CHEMBL5291721, “A preclinical secondary pharmacology resource illuminates target-adverse drug reaction associations of marketed drugs” (Nat Commun, 2023).
